Assay results: PubChem BioAssay (NCI)
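Where inhibition never reached the appropriate level, the endpoint shown equals the highest concentration tested. Otherwise, values were interpolated linearly from a five-concentration, 48-hour dose response in 96-well plates. TGI: total growth inhibition.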

What was measured:
Assay in all cases: NCI tumour cell line growth inhibition, 48 h
786-0 renal = test system: 786-0 renal
A549 NSCLC = test system: A549 NSCLC
ACHN renal = test system: ACHN renal
CAKI-1 renal = test system: CAKI-1 renal
COLO 205 colon = test system: COLO 205 colon
DLD-1 colon = test system: DLD-1 colon
DMS 114 small cell lung = test system: DMS 114 small cell lung
DMS 273 small cell lung = test system: DMS 273 small cell lung
EKVX NSCLC = test system: EKVX NSCLC
HCC-2998 colon = test system: HCC-2998 colon
HCT-116 colon = test system: HCT-116 colon
HCT-15 colon = test system: HCT-15 colon
HL-60(TB) leukemia = test system: HL-60(TB) leukemia
HOP-62 NSCLC = test system: HOP-62 NSCLC
HT29 colon = test system: HT29 colon
IGROV1 ovarian = test system: IGROV1 ovarian
K-562 leukemia = test system: K-562 leukemia
KM12 colon = test system: KM12 colon
KM20L2 colon = test system: KM20L2 colon
LOX IMVI melanoma = test system: LOX IMVI melanoma
LXFL 529 NSCLC = test system: LXFL 529 NSCLC
M14 melanoma = test system: M14 melanoma
M19-MEL melanoma = test system: M19-MEL melanoma
MOLT-4 leukemia = test system: MOLT-4 leukemia
NCI-H226 lung = test system: NCI-H226 lung
NCI-H23 lung = test system: NCI-H23 lung
NCI-H460 lung = test system: NCI-H460 lung
NCI-H522 lung = test system: NCI-H522 lung
OVCAR-3 ovarian = test system: OVCAR-3 ovarian
OVCAR-4 ovarian = test system: OVCAR-4 ovarian
OVCAR-5 ovarian = test system: OVCAR-5 ovarian
OVCAR-8 ovarian = test system: OVCAR-8 ovarian
RPMI-8226 leukemia = test system: RPMI-8226 leukemia
RXF-631 renal = test system: RXF-631 renal
SF-268 CNS = test system: SF-268 CNS
SF-295 CNS = test system: SF-295 CNS
SF-539 CNS = test system: SF-539 CNS
SK-MEL-2 melanoma = test system: SK-MEL-2 melanoma
SK-MEL-28 melanoma = test system: SK-MEL-28 melanoma
SK-MEL-5 melanoma = test system: SK-MEL-5 melanoma
SK-OV-3 ovarian = test system: SK-OV-3 ovarian
SN12C renal = test system: SN12C renal
SNB-19 CNS = test system: SNB-19 CNS
SNB-75 CNS = test system: SNB-75 CNS
SNB-78 CNS = test system: SNB-78 CNS
SR leukemia = test system: SR leukemia
SW-620 colon = test system: SW-620 colon
TK-10 renal = test system: TK-10 renal
U251 CNS = test system: U251 CNS
UACC-257 melanoma = test system: UACC-257 melanoma
UACC-62 melanoma = test system: UACC-62 melanoma
UO-31 renal = test system: UO-31 renal
XF 498 CNS = test system: XF 498 CNS
A498 renal = test system: A498 renal
CCRF-CEM leukemia = test system: CCRF-CEM leukemia
HOP-18 NSCLC = test system: HOP-18 NSCLC
HOP-92 NSCLC = test system: HOP-92 NSCLC
MALME-3M melanoma = test system: MALME-3M melanoma
MCF7 breast = test system: MCF7 breast
NCI/ADR-RES ovarian = test system: NCI/ADR-RES ovarian
P388 leukemia = test system: P388 leukemia
P388/ADR leukemia = test system: P388/ADR leukemia
RXF 393 renal = test system: RXF 393 renal
SN12K1 renal = test system: SN12K1 renal

With `CCN1CCC(O)(c2ccc(OC)cc2)C(C(=O)c2ccc(OC)cc2)C1` (stereo not drawn) the TGI (786-0 renal) was 26.8 µM, the TGI (A549 NSCLC) was 37 µM and the TGI (ACHN renal) was 30.1 µM. It also gave a TGI (CAKI-1 renal) of 31.3 µM, a TGI (COLO 205 colon) of 55.1 µM and a TGI (DLD-1 colon) of 36.3 µM. The TGI (DMS 114 small cell lung) was 40.8 µM, the TGI (DMS 273 small cell lung) was 50.2 µM and the TGI (EKVX NSCLC) was 98 µM. The TGI (HCC-2998 colon) was 41.2 µM, the TGI (HCT-116 colon) was 52.4 µM and the TGI (HCT-15 colon) was 43.1 µM. The TGI (HL-60(TB) leukemia) was 46.9 µM, the TGI (HOP-62 NSCLC) was > 100 µM and the TGI (HT29 colon) was 48.1 µM. For the same compound, the TGI (IGROV1 ovarian) was > 100 µM, the TGI (K-562 leukemia) was > 100 µM and the TGI (KM12 colon) was 42.1 µM. For the same compound, the TGI (KM20L2 colon) was 33.2 µM, the TGI (LOX IMVI melanoma) was 45.1 µM and the TGI (LXFL 529 NSCLC) was 37.2 µM. For the same compound, the TGI (M14 melanoma) was 29.7 µM, the TGI (M19-MEL melanoma) was 34.9 µM and the TGI (MOLT-4 leukemia) was > 100 µM. For the same compound, the TGI (NCI-H226 lung) was > 100 µM, the TGI (NCI-H23 lung) was 35.3 µM and the TGI (NCI-H460 lung) was 59.5 µM. It also gave a TGI (NCI-H522 lung) of 4.06 µM, a TGI (OVCAR-3 ovarian) of 31.6 µM and a TGI (OVCAR-4 ovarian) of 32.4 µM. The TGI (OVCAR-5 ovarian) was 32.3 µM, the TGI (OVCAR-8 ovarian) was 43.4 µM and the TGI (RPMI-8226 leukemia) was 38.9 µM. For the same compound, the TGI (RXF-631 renal) was 47.5 µM, the TGI (SF-268 CNS) was 41.8 µM and the TGI (SF-295 CNS) was > 100 µM. It also gave a TGI (SF-539 CNS) of 32.4 µM, a TGI (SK-MEL-2 melanoma) of 38.1 µM and a TGI (SK-MEL-28 melanoma) of 10.6 µM. For the same compound, the TGI (SK-MEL-5 melanoma) was 29 µM, the TGI (SK-OV-3 ovarian) was > 100 µM and the TGI (SN12C renal) was 42.5 µM. It also gave a TGI (SNB-19 CNS) of 69.1 µM, a TGI (SNB-75 CNS) of 30.6 µM and a TGI (SNB-78 CNS) of 59.3 µM. For the same compound, the TGI (SR leukemia) was 67.1 µM, the TGI (SW-620 colon) was 25.9 µM and the TGI (TK-10 renal) was 10.4 µM. The TGI (U251 CNS) was 30.5 µM, the TGI (UACC-257 melanoma) was 48 µM and the TGI (UACC-62 melanoma) was 32.2 µM. It also gave a TGI (UO-31 renal) of 35.3 µM and a TGI (XF 498 CNS) of 31.7 µM.
With `CC1(C)N=C(N)N=C(N)N1c1ccc(CCc2ccccc2)cc1` the TGI (A498 renal) was > 100 µM, the TGI (A549 NSCLC) was > 100 µM and the TGI (CAKI-1 renal) was > 100 µM. For the same compound, the TGI (CCRF-CEM leukemia) was > 100 µM, the TGI (COLO 205 colon) was 24.1 µM and the TGI (DLD-1 colon) was > 100 µM. For the same compound, the TGI (DMS 114 small cell lung) was 52.5 µM, the TGI (DMS 273 small cell lung) was 17.5 µM and the TGI (EKVX NSCLC) was 91.5 µM. The TGI (HCC-2998 colon) was 42.1 µM, the TGI (HCT-116 colon) was > 100 µM and the TGI (HCT-15 colon) was > 100 µM. The TGI (HL-60(TB) leukemia) was 49.1 µM, the TGI (HOP-18 NSCLC) was 97.3 µM and the TGI (HOP-92 NSCLC) was 79.7 µM. For the same compound, the TGI (HT29 colon) was > 100 µM, the TGI (IGROV1 ovarian) was 5.28 µM and the TGI (K-562 leukemia) was > 100 µM. The TGI (KM12 colon) was > 43.1 µM, the TGI (KM20L2 colon) was > 100 µM and the TGI (LOX IMVI melanoma) was > 100 µM. The TGI (M19-MEL melanoma) was 38.7 µM, the TGI (MALME-3M melanoma) was > 80.2 µM and the TGI (MCF7 breast) was > 76.7 µM. For the same compound, the TGI (MOLT-4 leukemia) was > 100 µM, the TGI (NCI-H226 lung) was 59.3 µM and the TGI (NCI-H23 lung) was > 100 µM. The TGI (NCI-H460 lung) was > 100 µM, the TGI (NCI-H522 lung) was 33.9 µM and the TGI (NCI/ADR-RES ovarian) was > 100 µM. For the same compound, the TGI (OVCAR-3 ovarian) was > 80.6 µM, the TGI (OVCAR-4 ovarian) was > 100 µM and the TGI (OVCAR-5 ovarian) was > 88.2 µM. For the same compound, the TGI (OVCAR-8 ovarian) was > 100 µM, the TGI (P388 leukemia) was 12.3 µM and the TGI (P388/ADR leukemia) was > 100 µM. For the same compound, the TGI (RPMI-8226 leukemia) was > 100 µM, the TGI (RXF 393 renal) was > 100 µM and the TGI (SF-268 CNS) was > 65 µM. For the same compound, the TGI (SF-295 CNS) was > 100 µM, the TGI (SF-539 CNS) was 82.8 µM and the TGI (SK-MEL-2 melanoma) was > 100 µM. The TGI (SK-MEL-28 melanoma) was > 86.7 µM, the TGI (SK-MEL-5 melanoma) was 9.63 µM and the TGI (SK-OV-3 ovarian) was > 100 µM. The TGI (SN12C renal) was > 78.1 µM, the TGI (SN12K1 renal) was > 100 µM and the TGI (SNB-19 CNS) was > 41.1 µM. For the same compound, the TGI (SNB-75 CNS) was > 94.3 µM, the TGI (SNB-78 CNS) was > 100 µM and the TGI (SW-620 colon) was > 100 µM. For the same compound, the TGI (U251 CNS) was > 100 µM, the TGI (UACC-257 melanoma) was 32 µM and the TGI (UACC-62 melanoma) was > 100 µM. The TGI (UO-31 renal) was > 100 µM.
